Patent US10517889B2, “Modulators of SMAD7 expression” (Ionis Pharmaceuticals, Inc., priority 2017, dated 2019)
Strand notation (5' to 3'): a small letter for the sugar, then the base; units joined by * are phosphorothioate-linked, units joined directly phosphodiester-linked; [ ] holds rarer units or linkages, { } end groups; capitals alone tell only the bases. e = 2'-O-(2-methoxyethyl) (MOE); [5mC] = 5-methylcytosine; d = 2'-deoxy (DNA)

What follows are substances tested on human SMAD7 mRNA (assay: Antisense inhibition of human SMAD7 mRNA expression in Hep3B cells by 5-10-5 MOE gapmers, single concentration, electroporation, RT-PCR (Example 1, Study 1 and 2)). Conditions: Study 2, electroporation with 15,000 nM antisense oligonucleotide, 5-10-5 MOE gapmers targeting SEQ ID NO: 1 and 2.
Assay type: cell-based
How it was run: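 Hep3B cells (20,000/well) electroporated with 5-10-5 MOE gapmer at 5,000 nM or 15,000 nM for approximately 24 h. SMAD7 mRNA quantified by real-time PCR with primer probe set RTS5062 and normalized to RIBOGREEN total RNA. Values are percent inhibition relative to untreated controls.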
In the case of “771370 (antisense e[5mC]*eA*eT*eT*e[5mC]*d[5mC]*dA*dA*dA*dA*dG*dG*d[5mC]*dT*dG*eA*e[5mC]*eT*e[5mC]*eG) [compound 771370]”, the “% Inhibition” value is reported as 18%.
“771534 (antisense eA*eA*e[5mC]*eA*eG*dA*dA*d[5mC]*dA*d[5mC]*dA*dA*dA*d[5mC]*dG*eA*eG*eG*eA*e[5mC]) [compound 771534]” was tested, and the “% inhibition of SMAD7 mRNA expression” value was 0%.
With “771819 (antisense eA*eA*eT*eA*eG*dT*dT*dT*dT*d[5mC]*dT*d[5mC]*dT*d[5mC]*dA*eA*eA*eT*eG*eT) [compound 771819]” the “% Inhibition” value was 20%.
For “771862 (antisense eT*e[5mC]*eT*eT*e[5mC]*d[5mC]*d[5mC]*d[5mC]*dA*dG*dA*dA*dA*dA*d[5mC]*eA*eG*e[5mC]*e[5mC]*e[5mC]) [compound 771862]”, the “% Inhibition” value was 10%.
“771393 (antisense eG*e[5mC]*eT*e[5mC]*e[5mC]*dG*dG*d[5mC]*dT*dG*d[5mC]*d[5mC]*d[5mC]*d[5mC]*dA*e[5mC]*e[5mC]*e[5mC]*e[5mC]*eG) [compound 771393]” was tested, and the “% Inhibition” value was 0%.
“771501 (antisense eG*e[5mC]*eA*e[5mC]*eG*d[5mC]*dG*dG*d[5mC]*dT*dA*d[5mC]*d[5mC]*dG*dG*e[5mC]*eT*eG*eT*eT) [compound 771501]” was tested, and the “% inhibition of SMAD7 mRNA expression” value was 16%.
For “771354 (antisense e[5mC]*eG*eG*e[5mC]*e[5mC]*dT*dT*d[5mC]*d[5mC]*dA*dT*d[5mC]*d[5mC]*dA*dA*e[5mC]*eT*e[5mC]*eT*e[5mC]) [compound 771354]”, the “% Inhibition” value was 39%.
With “771550 (antisense eT*eG*e[5mC]*eT*eT*d[5mC]*d[5mC]*d[5mC]*d[5mC]*dT*d[5mC]*dT*dT*d[5mC]*d[5mC]*eT*eA*eT*e[5mC]*eA) [compound 771550]” the “% inhibition of SMAD7 mRNA expression” value was 4%.
“771542 (antisense eA*e[5mC]*eA*eA*eT*dT*d[5mC]*dT*dT*dT*dT*d[5mC]*dA*dT*dA*eA*eG*e[5mC]*eT*eA) [compound 771542]” was tested, and the “% inhibition of SMAD7 mRNA expression” value was 0%.
“771695 (antisense eT*e[5mC]*eT*e[5mC]*e[5mC]*d[5mC]*dA*dG*dG*dA*dG*dG*dG*dT*dA*eT*eG*e[5mC]*eA*e[5mC]) [compound 771695]” was tested, and the “% Inhibition” value was 22%.
In the case of “771678 (antisense eT*eT*eA*eT*eT*dT*dT*dT*d[5mC]*dT*dT*dG*dT*dT*dT*eA*eT*eA*e[5mC]*eA) [compound 771678]”, the “% inhibition of SMAD7 mRNA expression” value is reported as 0%.
With “771940 (antisense eT*e[5mC]*e[5mC]*eT*eG*d[5mC]*dT*dG*d[5mC]*d[5mC]*d[5mC]*d[5mC]*dA*dG*d[5mC]*eA*eG*eG*e[5mC]*eT) [compound 771940]” the “% Inhibition” value was 0%.
In the case of “771774 (antisense eG*eA*eA*eA*eA*dA*d[5mC]*dA*dG*dG*dT*dA*dG*dA*dA*eA*eT*eA*eG*eG) [compound 771774]”, the “% Inhibition” value is reported as 14%.
For “771772 (antisense eT*e[5mC]*e[5mC]*eT*e[5mC]*dA*dG*dG*dA*dA*d[5mC]*dA*dA*d[5mC]*dA*eA*eT*eG*e[5mC]*eT) [compound 771772]”, the “% Inhibition” value was 27%.
With “771551 (antisense eA*eT*eT*eT*e[5mC]*dT*dG*d[5mC]*dT*dT*d[5mC]*d[5mC]*d[5mC]*d[5mC]*dT*e[5mC]*eT*eT*e[5mC]*e[5mC]) [compound 771551]” the “% inhibition of SMAD7 mRNA expression” value was 18%.
For “771453 (antisense eA*eT*e[5mC]*eT*eG*dG*dA*d[5mC]*dA*dG*dT*d[5mC]*dT*dG*d[5mC]*eA*eG*eT*eT*eG) [compound 771453]”, the “% inhibition of SMAD7 mRNA expression” value was 38%.
With “771558 (antisense eA*eA*eA*eT*eG*dA*dT*dG*dA*d[5mC]*d[5mC]*dG*d[5mC]*d[5mC]*d[5mC]*e[5mC]*e[5mC]*e[5mC]*eT*eT) [compound 771558]” the “% inhibition of SMAD7 mRNA expression” value was 7%.
“771516 (antisense eG*eA*eG*eG*eA*dA*dA*dA*dT*dA*dT*dT*dA*dG*d[5mC]*eA*eG*e[5mC]*eA*eA) [compound 771516]” was tested, and the “% inhibition of SMAD7 mRNA expression” value was 8%.

Same assay, conditions: electroporation with 15,000 nM antisense oligonucleotide (Study 2), 5-10-5 MOE gapmers targeting SEQ ID NO: 1 and 2
With “771624 (antisense eT*eT*eA*eA*e[5mC]*dA*d[5mC]*dA*d[5mC]*dA*dG*dG*dA*dT*dG*eG*eG*eA*eG*e[5mC]) [compound 771624]” the “% Inhibition of SMAD7 mRNA” value was 27% and the “% inhibition of SMAD7 mRNA expression” value was 0%.
For “771657 (antisense e[5mC]*eT*eT*eA*eT*dG*dT*dT*dA*dA*dA*dG*dT*d[5mC]*dT*eA*eA*eA*e[5mC]*eA) [compound 771657]”, the “% inhibition of SMAD7 mRNA expression” value was 6%.
“771666 (antisense eA*e[5mC]*eT*eA*e[5mC]*dA*dA*dT*dG*d[5mC]*dT*dA*dA*dA*dT*eT*eT*e[5mC]*e[5mC]*eA) [compound 771666]” was tested, and the “% inhibition of SMAD7 mRNA expression” value was 39%.
With “771736 (antisense eT*eG*e[5mC]*e[5mC]*eA*dG*dA*dT*d[5mC]*dT*d[5mC]*dA*dG*dG*dT*e[5mC]*eA*eA*eG*eA) [compound 771736]” the “% Inhibition of SMAD7 mRNA” value was 34%.
“771816 (antisense eA*eT*e[5mC]*e[5mC]*eA*dA*d[5mC]*dT*dA*d[5mC]*dT*d[5mC]*dA*dG*dA*eG*eG*e[5mC]*eT*eG) [compound 771816]” was tested, and the “% Inhibition of SMAD7 mRNA” value was 28%.

Same assay, conditions: electroporation, 5,000 nM, approximately 24 hours, relative to untreated control cells, gapmers targeting SEQ ID NO: 1 and 2
In the case of “771819 (antisense eA*eA*eT*eA*eG*dT*dT*dT*dT*d[5mC]*dT*d[5mC]*dT*d[5mC]*dA*eA*eA*eT*eG*eT) [compound 771819]”, the “% inhibition of SMAD7 mRNA expression” value is reported as 56%.

Same assay, conditions: electroporation, 15,000 nM antisense oligonucleotide (Study 2), 5-10-5 MOE gapmers targeting SEQ ID NO: 1 and 2
“771373 (antisense eG*eA*eA*eA*eG*dA*d[5mC]*dA*dA*dA*d[5mC]*d[5mC]*dA*d[5mC]*dA*e[5mC]*eA*eT*eT*e[5mC]) [compound 771373]” was tested, and the “% inhibition of SMAD7 mRNA expression” value was 32%.
With “771736 (antisense eT*eG*e[5mC]*e[5mC]*eA*dG*dA*dT*d[5mC]*dT*d[5mC]*dA*dG*dG*dT*e[5mC]*eA*eA*eG*eA) [compound 771736]” the “% inhibition of SMAD7 mRNA expression” value was 0%.
With “771706 (antisense eG*eG*eG*e[5mC]*e[5mC]*dT*dG*dG*dA*d[5mC]*d[5mC]*dA*dA*dA*dT*e[5mC]*e[5mC]*eA*eA*e[5mC]) [compound 771706]” the “% inhibition of SMAD7 mRNA expression” value was 22%.
In the case of “771490 (antisense e[5mC]*eT*eT*e[5mC]*eA*d[5mC]*dA*dA*dA*dG*d[5mC]*dT*dG*dA*dT*e[5mC]*eT*eG*e[5mC]*eA) [compound 771490]”, the “% inhibition of SMAD7 mRNA expression” value is reported as 44%.
For “771816 (antisense eA*eT*e[5mC]*e[5mC]*eA*dA*d[5mC]*dT*dA*d[5mC]*dT*d[5mC]*dA*dG*dA*eG*eG*e[5mC]*eT*eG) [compound 771816]”, the “% inhibition of SMAD7 mRNA expression” value was 27%.
With “771818 (antisense eT*eG*eA*eA*eG*dA*d[5mC]*dA*dA*d[5mC]*dT*dG*d[5mC]*dT*dT*eT*eG*eA*eG*eA) [compound 771818]” the “% inhibition of SMAD7 mRNA expression” value was 38%.
“771569 (antisense eG*eG*eA*e[5mC]*eT*dG*d[5mC]*dA*dA*dA*d[5mC]*d[5mC]*dT*d[5mC]*dT*e[5mC]*eT*eG*e[5mC]*eT) [compound 771569]” was tested, and the “% inhibition of SMAD7 mRNA expression” value was 30%.
“771411 (e[5mC]*e[5mC]*eT*eT*e[5mC]*dT*d[5mC]*d[5mC]*d[5mC]*d[5mC]*dG*d[5mC]*dA*dG*d[5mC]*eT*e[5mC]*eG*e[5mC]*e[5mC]; antisense) [compound 771411]” was tested, and the “% inhibition of SMAD7 mRNA expression” value was 33%.
“771585 (antisense eG*eA*eG*e[5mC]*e[5mC]*dG*dT*dG*d[5mC]*dT*d[5mC]*d[5mC]*dT*dG*dG*e[5mC]*eA*eG*e[5mC]*eT) [compound 771585]” was tested, and the “% inhibition of SMAD7 mRNA expression” value was 49%.
With “483664 (antisense eT*eG*e[5mC]*eT*e[5mC]*dA*dG*d[5mC]*dT*d[5mC]*dA*d[5mC]*dG*d[5mC]*dT*e[5mC]*eT*eG*eT*e[5mC]) [compound 483664]” the “% inhibition of SMAD7 mRNA expression” value was 36%.
“771427 (e[5mC]*e[5mC]*eT*e[5mC]*eG*d[5mC]*dA*d[5mC]*d[5mC]*dG*d[5mC]*d[5mC]*dT*dT*dG*e[5mC]*e[5mC]*e[5mC]*eA*eG; antisense) [compound 771427]” was tested, and the “% inhibition of SMAD7 mRNA expression” value was 36%.
In the case of “771753 (antisense eG*eT*e[5mC]*e[5mC]*eA*dT*dG*dA*dA*d[5mC]*d[5mC]*dA*d[5mC]*dA*dA*e[5mC]*eT*e[5mC]*eA*eT) [compound 771753]”, the “% inhibition of SMAD7 mRNA expression” value is reported as 50%.
For “771946 (antisense eG*eG*eG*e[5mC]*eT*dA*d[5mC]*d[5mC]*dT*dT*dA*dA*d[5mC]*dA*dA*eA*eG*e[5mC]*eT*eT) [compound 771946]”, the “% inhibition of SMAD7 mRNA expression” value was 47%.

Same assay, conditions: electroporation, 15,000 nM, approximately 24 hours, relative to untreated control cells, gapmers targeting SEQ ID NO: 1 and 2
In the case of “771392 (antisense e[5mC]*eT*e[5mC]*e[5mC]*eG*dG*d[5mC]*dT*dG*d[5mC]*d[5mC]*d[5mC]*d[5mC]*dA*d[5mC]*e[5mC]*e[5mC]*e[5mC]*eG*e[5mC]) [compound 771392]”, the “% inhibition of SMAD7 mRNA expression” value is reported as 28%.
With “771621 (antisense eA*e[5mC]*eA*e[5mC]*eA*d[5mC]*dA*dG*dG*dA*dT*dG*dG*dG*dA*eG*e[5mC]*eA*eG*eG) [compound 771621]” the “% inhibition of SMAD7 mRNA expression” value was 36%.
With “771781 (antisense eA*eA*eA*eA*eA*dA*dA*dG*d[5mC]*d[5mC]*d[5mC]*dA*d[5mC]*d[5mC]*d[5mC]*eA*eT*e[5mC]*eG*eG) [compound 771781]” the “% inhibition of SMAD7 mRNA expression” value was 10%.
In the case of “771430 (e[5mC]*eG*e[5mC]*e[5mC]*e[5mC]*dG*d[5mC]*dG*dG*d[5mC]*dT*dG*dG*d[5mC]*dG*eG*eG*eT*eG*eG; antisense) [compound 771430]”, the “% inhibition of SMAD7 mRNA expression” value is reported as 40%.
With “771877 (antisense eT*eG*e[5mC]*eA*eG*dG*dA*dT*d[5mC]*d[5mC]*dG*dA*dT*dG*dG*eA*eA*eA*eA*eG) [compound 771877]” the “% inhibition of SMAD7 mRNA expression” value was 24%.
“771637 (antisense eT*eG*eG*eT*eA*d[5mC]*d[5mC]*dT*dT*dG*dG*dG*dT*dT*dA*eT*eG*eA*e[5mC]*eG) [compound 771637]” was tested, and the “% inhibition of SMAD7 mRNA expression” value was 23%.
With “771789 (antisense e[5mC]*e[5mC]*e[5mC]*eA*eA*dA*dA*d[5mC]*dA*dG*dT*dG*dT*dA*d[5mC]*e[5mC]*e[5mC]*eT*e[5mC]*e[5mC]) [compound 771789]” the “% inhibition of SMAD7 mRNA expression” value was 30%.
For “771613 (antisense e[5mC]*eT*eA*eA*eG*dT*d[5mC]*d[5mC]*dG*dG*dG*dA*dA*dA*dA*eA*e[5mC]*e[5mC]*eT*eG) [compound 771613]”, the “% inhibition of SMAD7 mRNA expression” value was 21%.
With “771645 (antisense eG*eT*eT*eG*eT*dA*dG*dA*dA*dG*dA*dA*dA*dT*dG*eA*eA*eA*eG*eA) [compound 771645]” the “% inhibition of SMAD7 mRNA expression” value was 38%.
